Several values for one entry are separate records, joined by “and”; a condition that tells them apart may be missing. Identical values can stand only once. Toxic doses and inconclusive results are not listed.
System: B6C3F1 mice, B16 melanoma ip, median survival T/C
Test: NCI In Vivo Anticancer Drug Screen. Data for tumor model B16 Melanoma (intraperitoneal) in B6C3F1 mice
Settings: endpoint: median survival time, higher = longer survival
Summary of the method: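 Tumor-bearing mice received test compound; a separate group got vehicle only. Survival was then compared, with results reported as treated over control.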

[1] = dose: 12.5 mg/kg/injection, schedule: Q01DX009 (ip), vehicle: Klucel (hydroxypropylcellulose) (HPC)
[2] = dose: 25.0 mg/kg/injection, schedule: Q01DX009 (ip), vehicle: Klucel (hydroxypropylcellulose) (HPC)
[3] = dose: 50.0 mg/kg/injection, schedule: Q01DX009 (ip), vehicle: Klucel (hydroxypropylcellulose) (HPC)
[4] = dose: 100.0 mg/kg/injection, schedule: Q01DX009 (ip), vehicle: Klucel (hydroxypropylcellulose) (HPC)
[5] = dose: 25.0 mg/kg/injection, schedule: Q01DX009 (ip), vehicle: saline
[6] = dose: 50.0 mg/kg/injection, schedule: Q01DX009 (ip), vehicle: saline
[7] = dose: 6.25 mg/kg/injection, schedule: Q01DX009 (ip), vehicle: saline with Tween-80
[8] = dose: 12.5 mg/kg/injection, schedule: Q01DX009 (ip), vehicle: saline with Tween-80
[9] = dose: 100.0 mg/kg/injection, schedule: Q01DX009 (ip), vehicle: saline
[10] = dose: 200.0 mg/kg/injection, schedule: Q01DX009 (ip), vehicle: saline
[11] = dose: 100.0 mg/kg/injection, schedule: Q01DX009 (ip), vehicle: saline with Tween-80
[12] = dose: 25.0 mg/kg/injection, schedule: Q01DX009 (ip), vehicle: saline with Tween-80
[13] = dose: 200.0 mg/kg/injection, schedule: Q01DX009 (ip), vehicle: Klucel (hydroxypropylcellulose) (HPC)

## COc1cc2cc(c1Cl)N(C)C(=O)CC(OC(=O)C(C)N(C)C(=O)C(C)C)C1(C)OC1C(C)C1CC(O)(NC(=O)O1)C(OC)/C=C/C=C(C)C2OC (stereo not drawn)
dose: 2.0 micrograms/kg/injection, schedule: Q01DX009 (ip), vehicle: Klucel (hydroxypropylcellulose) (HPC)
  T/C: 196 % of control
dose: 4.0 micrograms/kg/injection, schedule: Q01DX009 (ip), vehicle: Klucel (hydroxypropylcellulose) (HPC)
  T/C: 157 % of control and 165 % of control and 213 % of control
dose: 4.0 micrograms/kg/injection, schedule: Q01DX009 (ip), vehicle: distilled water + alcohol
  T/C: 103 % of control
dose: 8.0 micrograms/kg/injection, schedule: Q01DX009 (ip), vehicle: Klucel (hydroxypropylcellulose) (HPC)
  T/C: 172 % of control and 185 % of control and 245 % of control
dose: 8.0 micrograms/kg/injection, schedule: Q01DX009 (ip), vehicle: distilled water + alcohol
  T/C: 101 % of control
dose: 16.0 micrograms/kg/injection, schedule: Q01DX009 (ip), vehicle: Klucel (hydroxypropylcellulose) (HPC)
  T/C: 172 % of control and 194 % of control and 232 % of control
dose: 16.0 micrograms/kg/injection, schedule: Q01DX009 (ip), vehicle: distilled water + alcohol
  T/C: 114 % of control
dose: 32.0 micrograms/kg/injection, schedule: Q01DX009 (ip), vehicle: Klucel (hydroxypropylcellulose) (HPC)
  T/C: 183 % of control and 207 % of control
dose: 32.0 micrograms/kg/injection, schedule: Q01DX009 (ip), vehicle: distilled water + alcohol
  T/C: 119 % of control and 122 % of control
dose: 64.0 micrograms/kg/injection, schedule: Q01DX009 (ip), vehicle: distilled water + alcohol
  T/C: 105 % of control
dose: 128.0 micrograms/kg/injection, schedule: Q01DX009 (ip), vehicle: distilled water + alcohol
  T/C: 114 % of control

## COC1=CC(=O)c2c(O)cc(OC)cc2C1=O
dose: 1.25 mg/kg/injection, schedule: Q01DX009 (ip), vehicle: saline with Tween-80
  T/C: 105 % of control
dose: 2.5 mg/kg/injection, schedule: Q01DX009 (ip), vehicle: saline with Tween-80
  T/C: 105 % of control
dose: 5.0 mg/kg/injection, schedule: Q01DX009 (ip), vehicle: saline with Tween-80
  T/C: 121 % of control
dose: 10.0 mg/kg/injection, schedule: Q01DX009 (ip), vehicle: saline with Tween-80
  T/C: 109 % of control

## N#CC(C#N)=NNc1ccc2cn[nH]c2c1
[1]
  T/C: 108 % of control
[2]
  T/C: 100 % of control
[3]
  T/C: 106 % of control
[4]
  T/C: 102 % of control

## O=C1NC(=O)C2(CCc3ccc(N(CCCl)CCCl)cc32)N1 (stereo not drawn)
dose: 1.5 mg/kg/injection, schedule: Q01DX009 (ip), vehicle: saline with Tween-80
  T/C: 122 % of control
dose: 6.25 mg/kg/injection, schedule: Q01DX009 (oral), vehicle: saline with Tween-80
  T/C: 100 % of control
dose: 12.0 mg/kg/injection, schedule: Q01DX009 (ip), vehicle: saline with Tween-80
  T/C: 157 % of control
dose: 12.5 mg/kg/injection, schedule: Q01DX009 (oral), vehicle: saline with Tween-80
  T/C: 115 % of control and 108 % of control
dose: 24.0 mg/kg/injection, schedule: Q01DX009 (ip), vehicle: saline with Tween-80
  T/C: 202 % of control
dose: 25.0 mg/kg/injection, schedule: Q01DX009 (oral), vehicle: saline with Tween-80
  T/C: 109 % of control and 105 % of control
dose: 48.0 mg/kg/injection, schedule: Q01DX009 (ip), vehicle: saline with Tween-80
  T/C: 236 % of control
dose: 50.0 mg/kg/injection, schedule: Q01DX009 (oral), vehicle: saline with Tween-80
  T/C: 121 % of control and 104 % of control
dose: 100.0 mg/kg/injection, schedule: Q01DX009 (oral), vehicle: saline with Tween-80
  T/C: 109 % of control and 117 % of control
dose: 200.0 mg/kg/injection, schedule: Q01DX009 (oral), vehicle: saline with Tween-80
  T/C: 117 % of control and 101 % of control
dose: 400.0 mg/kg/injection, schedule: Q01DX009 (oral), vehicle: saline with Tween-80
  T/C: 109 % of control

## NC(CSC(c1ccccc1)(c1ccccc1)c1ccccc1)C(=O)O (stereo not drawn)
dose: 4.0 mg/kg/injection, schedule: Q01DX009 (ip), vehicle: Klucel (hydroxypropylcellulose) (HPC)
  T/C: 120 % of control
dose: 16.0 mg/kg/injection, schedule: Q01DX009 (ip), vehicle: Klucel (hydroxypropylcellulose) (HPC)
  T/C: 124 % of control

## C[C@@H]1C[C@@H]([C@H](O)CC2CC(=O)NC(=O)C2)C(=O)[C@@H](C)C1
dose: 12.5 mg/kg/injection, schedule: Q01DX009 (ip), vehicle: saline
  T/C: 105 % of control
[5]
  T/C: 111 % of control
[6]
  T/C: 106 % of control

## C=C1N(C)c2ccccc2C1(C)C
[7]
  T/C: 110 % of control
[8]
  T/C: 108 % of control

## ClCc1ccc(Oc2ccc(CCl)cc2)cc1
dose: 3.12 mg/kg/injection, schedule: Q01DX009 (ip), vehicle: Klucel (hydroxypropylcellulose) (HPC)
  T/C: 101 % of control
dose: 6.25 mg/kg/injection, schedule: Q01DX009 (ip), vehicle: Klucel (hydroxypropylcellulose) (HPC)
  T/C: 98 % of control
[1]
  T/C: 107 % of control
[2]
  T/C: 112 % of control
[3]
  T/C: 93 % of control

## C=C1CCOC2(C(O)C(C)(O)CO)NC(=O)C1(O)NC2=O (stereo not drawn)
[6]
  T/C: 97 % of control
[9]
  T/C: 95 % of control
[10]
  T/C: 99 % of control

## CC(C)C(NC(=O)OC(C)(C)C)C(=O)ON1C(=O)CCC1=O (stereo not drawn)
dose: 50.0 mg/kg/injection, schedule: Q01DX009 (ip), vehicle: saline with Tween-80
  T/C: 91 % of control
[11]
  T/C: 86 % of control

## CSCCC(N)C(=O)O (stereo not drawn)
[5]
  T/C: 106 % of control
[6]
  T/C: 94 % of control
[9]
  T/C: 100 % of control
[10]
  T/C: 113 % of control
dose: 400.0 mg/kg/injection, schedule: Q01DX009 (ip), vehicle: saline
  T/C: 99 % of control

## CO[C@H](/C(C)=C/C=C/C(C)=C/c1coc(C)n1)[C@H](C)[C@H]1C[C@@H](O)[C@@]2(C)O[C@H]2/C=C/[C@@H](C)[C@@H]2C[C@@H](CC(=O)O2)C[C@H]2O[C@@H]2C(=O)O1
dose: 0.01 mg/kg/injection, schedule: Q01DX009 (ip), vehicle: Klucel (hydroxypropylcellulose) (HPC)
  T/C: 118 % of control and 98 % of control and 102 % of control
dose: 0.01 mg/kg/injection, schedule: Q01DX009 (ip), vehicle: other
  T/C: 94 % of control and 106 % of control
dose: 0.03 mg/kg/injection, schedule: Q01DX009 (ip), vehicle: Klucel (hydroxypropylcellulose) (HPC)
  T/C: 111 % of control and 112 % of control and 97 % of control
dose: 0.03 mg/kg/injection, schedule: Q01DX009 (ip), vehicle: other
  T/C: 110 % of control
dose: 0.1 mg/kg/injection, schedule: Q01DX009 (sc), vehicle: Klucel (hydroxypropylcellulose) (HPC)
  T/C: 154 % of control
dose: 0.4 mg/kg/injection, schedule: Q01DX009 (sc), vehicle: Klucel (hydroxypropylcellulose) (HPC)
  T/C: 117 % of control

## COc1cccc2c1C(=O)c1c(O)c3c(c(O)c1C2=O)C[C@@](O)(/C(C)=N\O)C[C@@H]3OC1CC(N)C(O)C(C)O1 (stereo partly drawn)
dose: 1.5 mg/kg/injection, schedule: Q01DX009 (ip), vehicle: saline
  T/C: 160 % of control
dose: 3.13 mg/kg/injection, schedule: Q01DX009 (ip), vehicle: water
  T/C: 150 % of control
dose: 6.0 mg/kg/injection, schedule: Q01DX009 (ip), vehicle: saline
  T/C: 164 % of control
dose: 6.25 mg/kg/injection, schedule: Q01DX009 (ip), vehicle: water
  T/C: 182 % of control
dose: 12.0 mg/kg/injection, schedule: Q01DX009 (ip), vehicle: saline
  T/C: 217 % of control
dose: 12.5 mg/kg/injection, schedule: Q01DX009 (ip), vehicle: water
  T/C: 178 % of control
dose: 24.0 mg/kg/injection, schedule: Q01DX009 (ip), vehicle: saline
  T/C: 204 % of control

## O=C1c2ccc(Br)cc2-c2cc(Br)ccc21
[7]
  T/C: 98 % of control
[8]
  T/C: 98 % of control
[12]
  T/C: 93 % of control

## O=C(NC(CSSCC(NC(=O)OCc1ccccc1)C(=O)O)C(=O)O)OCc1ccccc1 (stereo not drawn)
[2]
  T/C: 104 % of control
[3]
  T/C: 94 % of control
[4]
  T/C: 102 % of control
[13]
  T/C: 88 % of control

## C/C(=N/NC(N)=S)c1ccc2ccccc2c1
[7]
  T/C: 106 % of control
[8]
  T/C: 108 % of control
[12]
  T/C: 108 % of control

## Ic1ccc2c(c1)N(c1ccccc1)c1cc(N=c3ccc4nc5ccc(I)cc5n(-c5ccccc5)c-4c3)ccc1N2
[4]
  T/C: 91 % of control
[13]
  T/C: 94 % of control
dose: 400.0 mg/kg/injection, schedule: Q01DX009 (ip), vehicle: Klucel (hydroxypropylcellulose) (HPC)
  T/C: 91 % of control

## COc1cccc2c1C(=O)c1c(O)c3c(c(O)c1C2=O)C[C@@](O)(C(C)=O)C[C@@H]3OC1CC(N(CCO)Cc2ccccc2)C(O)C(C)O1 (stereo partly drawn)
dose: 12.5 mg/kg/injection, schedule: Q01DX001 (ip), vehicle: water
  T/C: 120 % of control
dose: 25.0 mg/kg/injection, schedule: Q01DX001 (ip), vehicle: water
  T/C: 116 % of control

## Cc1ccccc1N(C=O)c1ccccc1C
[11]
  T/C: 97 % of control
dose: 200.0 mg/kg/injection, schedule: Q01DX009 (ip), vehicle: saline with Tween-80
  T/C: 97 % of control
dose: 400.0 mg/kg/injection, schedule: Q01DX009 (ip), vehicle: saline with Tween-80
  T/C: 97 % of control
